In PMC11882969 (Nature Communications, 2025):
Values joined by “and” are separate entries in the source; they are usually repeats but may differ in a detail not shown here. Identical values can stand only once. Like-named read-outs stand apart in the source and are kept apart here.

Columns and labels:
CB1 (rCB1) = CB1 (rCB1) (Rattus norvegicus, UniProt P20272); assay: Radioligand competition binding, [3H]-CP-55,940, rat brain membranes
hCB1 = hCB1 (Homo sapiens, UniProt P21554); assay: bioSensAll ebBRET signaling profiling, hCB1; assay type: cell-based; set-up: host or cells: HEK293SL cells, transient PEI transfection; details: for Gi1 hCB1 response: Gi1 biosensor; for Gi1 hCB1 / GoB hCB1: single replicate values, FigS6a; for EC50: read-out: EC50 [95% CI]; for Emax: normalized to CP-55,940
Chain of hCB1 (P21554 whole entry): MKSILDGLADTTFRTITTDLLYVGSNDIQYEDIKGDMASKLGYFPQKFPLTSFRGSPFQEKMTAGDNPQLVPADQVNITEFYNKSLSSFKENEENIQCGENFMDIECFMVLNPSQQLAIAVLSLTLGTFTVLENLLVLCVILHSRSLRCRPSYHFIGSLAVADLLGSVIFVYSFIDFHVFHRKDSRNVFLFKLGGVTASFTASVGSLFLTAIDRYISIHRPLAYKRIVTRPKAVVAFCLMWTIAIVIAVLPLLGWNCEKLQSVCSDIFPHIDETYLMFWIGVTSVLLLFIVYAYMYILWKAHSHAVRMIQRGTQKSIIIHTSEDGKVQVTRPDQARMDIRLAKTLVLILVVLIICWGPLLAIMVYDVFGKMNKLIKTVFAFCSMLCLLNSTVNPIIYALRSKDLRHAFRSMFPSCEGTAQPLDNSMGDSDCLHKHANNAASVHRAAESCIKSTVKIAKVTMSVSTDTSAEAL

Chain of CB1 (rCB1) (P20272 whole entry): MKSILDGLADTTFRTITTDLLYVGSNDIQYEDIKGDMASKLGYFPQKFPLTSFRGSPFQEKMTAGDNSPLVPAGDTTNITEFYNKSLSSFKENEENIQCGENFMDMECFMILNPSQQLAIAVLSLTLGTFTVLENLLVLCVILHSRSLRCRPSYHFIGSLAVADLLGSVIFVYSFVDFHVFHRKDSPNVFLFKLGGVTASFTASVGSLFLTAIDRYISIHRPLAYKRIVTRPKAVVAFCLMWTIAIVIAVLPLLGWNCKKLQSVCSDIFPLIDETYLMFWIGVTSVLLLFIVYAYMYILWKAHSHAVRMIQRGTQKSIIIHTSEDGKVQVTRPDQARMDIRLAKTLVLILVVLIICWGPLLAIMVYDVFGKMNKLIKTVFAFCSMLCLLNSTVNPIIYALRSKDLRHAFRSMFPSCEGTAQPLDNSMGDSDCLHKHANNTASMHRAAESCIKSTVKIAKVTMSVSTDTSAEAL

## Cc1cc(C(=O)NC(c2ccccc2)c2ccco2)nn1-c1cccc(C(F)(F)F)c1 (stereo not drawn) [‘1081]
CB1 (rCB1); rCB1
  pKi [95% CI]: 6.9 [6.8 – 7.1]
CB1 (rCB1); read-out: Ki [95% CI], rCB1, [3H]-CP-55,940
  Ki: 116 nM
hCB1; Log [Compound] (M) -4.22186
  Gi1 hCB1 response: 74.944
  Gi1 hCB1: 52.0891
  GoB hCB1: 46.0629
hCB1; Log [Compound] (M) -4.63927
  Gi1 hCB1 response: 67.9833
  Gi1 hCB1: 50.1467
  GoB hCB1: 47.4116
hCB1; Log [Compound] (M) -5.05788
  Gi1 hCB1 response: 54.8454
  Gi1 hCB1: 48.6204
  GoB hCB1: 38.1682
hCB1; Log [Compound] (M) -5.47381
  Gi1 hCB1 response: 47.9296
  Gi1 hCB1: 43.0088
  GoB hCB1: 38.8336
hCB1; Log [Compound] (M) -5.89285
  Gi1 hCB1 response: 64.2009
  Gi1 hCB1: 42.6234
  GoB hCB1: 33.6364
hCB1; Log [Compound] (M) -6.31878
  Gi1 hCB1 response: 42.1551
  Gi1 hCB1: 36.4105
  GoB hCB1: 34.6075
hCB1; Log [Compound] (M) -6.72585
  Gi1 hCB1 response: 23.6233
  Gi1 hCB1: 32.0322
  GoB hCB1: 26.2812
hCB1; Log [Compound] (M) -7.14267
  Gi1 hCB1 response: 32.464
  Gi1 hCB1: 17.1706
  GoB hCB1: 21.1739
hCB1; Log [Compound] (M) -7.55284
  Gi1 hCB1 response: 4.129
  Gi1 hCB1: 12.4531
  GoB hCB1: 14.1424
hCB1; Log [Compound] (M) -8
  Gi1 hCB1 response: -0.3248
  Gi1 hCB1: 6.533
  GoB hCB1: 4.935
hCB1; Log [Compound] (M) -8.22186
  Gi1 hCB1 response: 3.077
  Gi1 hCB1: 6.209
  GoB hCB1: 1.626
hCB1; Log [Compound] (M) -8.39794
  Gi1 hCB1 response: 0.4809
  Gi1 hCB1: 4.544
  GoB hCB1: 0.2593
hCB1; Log [Compound] (M) -8.68787
  Gi1 hCB1 response: 1.913
  Gi1 hCB1: 3.434
  GoB hCB1: -1.683
hCB1; Log [Compound] (M) -9.15521
  Gi1 hCB1 response: -3.123
  Gi1 hCB1: 3.357
  GoB hCB1: -3.445
hCB1; Log [Compound] (M) -9.61989
  Gi1 hCB1 response: -0.5486
  Gi1 hCB1: 1.492
  GoB hCB1: -0.6039
hCB1; Log [Compound] (M) -10.5529
  Gi1 hCB1 response: 3.637
  Gi1 hCB1: 3.496
  GoB hCB1: -5.459
hCB1; Log [Compound] (M) -11.0177
  Gi1 hCB1 response: -17.939
  Gi1 hCB1: 1.214
  GoB hCB1: -3.661
hCB1; Log [Compound] (M) -11.4949
  Gi1 hCB1 response: 0.01089
  Gi1 hCB1: 1.523
  GoB hCB1: 0.9786
hCB1; Log [Compound] (M) -11.9208
  Gi1 hCB1 response: -4.7116
  Gi1 hCB1: 2.833
  GoB hCB1: 3.047
hCB1; Log [Compound] (M) -12.3979
  Gi1 hCB1 response: -3.011
  Gi1 hCB1: 0.3511
  GoB hCB1: -1.071
hCB1; Log [Compound] (M) -13, individual replicate values
  Gi1 hCB1 response: 10.3511 and -8.673
hCB1; Log [Compound] (M) -10.0969
  Gi1 hCB1: 1.199
  GoB hCB1: -2.51
hCB1; Log [Compound] (M) -12.8861
  Gi1 hCB1: 2.432
  GoB hCB1: -2.402
hCB1; Log [Compound] (M) -13
  Gi1 hCB1: 2.448 and 3.003
  GoB hCB1: -0.01046 and 0.7448
hCB1; hCB1 Gi1
  pEC50 [95% CI]: 6.8 [6.7 – 6.9]
  EC50: 150 nM
hCB1; hCB1 GoB
  pEC50 [95% CI]: 7.0 [6.8 – 7.3]
  EC50: 91.7 nM
hCB1; hCB1 Gz
  pEC50 [95% CI]: 6.7 [6.2 – 7.1]
  EC50: 225 nM
hCB1; read-out: Emax [95% CI], hCB1 Gi1
  Emax: 49%
hCB1; read-out: Emax [95% CI], hCB1 GoB
  Emax: 45%
hCB1; read-out: Emax [95% CI], hCB1 Gz
  Emax: 72%
